Here are results for 10 compounds from patent publication US20220119376A1, “TRICYCLIC COMPOUNDS ACTING ON CRBN PROTEINS” (CHIA TAI TIANQING PHARMACEUTICAL GROUP CO., LTD., priority 2018, published 2022).

The structures appear in SMILES notation. Where a name gives a salt, the structure may show the parent alone.

One data set relates to MM.1S. Description: Antiproliferative effect in multiple myeloma cell line MM.1S (CellTiter-Glo). The format is cell-based. The following applies: Homo sapiens, MM1.S, 120 h, MM.1S cells, 5 days of compound co-incubation. How it is done:
(§1) Periodical passaging was performed, and cells in logarithmic growth phase were taken for plating. • (1) Cells were stained with trypan blue and viable cells were counted. • (2) The cell concentration was adjusted to an appropriate level. [table] • (3) 90 μL of cell suspension was added to each well in the culture plate and cell-free medium was added to the blank control wells according to the table above. • (4) The culture plate was incubated overnight in an incubator at 37° C./5% CO2 and 100% relative humidity. […] It was prepared freshly prior to use. […] After the compound or DMSO was added, the mixture was pipetted and mixed well. […] 10 μL of DMSO-cell culture mixture was added to the vehicle control and blank control wells. […] The following procedure was performed according to the instructions of Promega CellTiter-Glo luminescence cell viability assay kit (Promega-G7573). […] The cell plate was wrapped with aluminum foil to keep out of light. (7) The plate was shaken on an orbital shaker for 2 min to induce cell lysis. (8) The culture plate was placed at room temperature for 10 min to stabilize the luminescence signals. (9) The luminescence signals were detected on 2104 EnVision plate reader. […] Inhibition rates of compounds at different concentrations were calculated in Excel, followed by plotting the inhibition curves and calculating relevant parameters including minimum inhibition rate (%), maximum inhibition rate (%) and IC50 using GraphPad Prism software.
(ATP-based viability assays read luminescence as a measure of living cells.)

Another data set concerns NCI-H929. Nature of the data set: Antiproliferative effect in myeloma cell line NCI-H929 (CellTiter-Glo). It is filed as cell-based. The following applies: Homo sapiens, 120 h, NCI-H929 cells, 5 days of compound co-incubation. How it is done: as §1
Data set [1] in a line: Pharmacokinetic evaluation of compounds in mice. The following applies: male, C57BL, mouse, in vivo. The text has this: The test animals in the study were C57BL male mice, and the LC/MS/MS method was used to quantitatively determine the drug concentration in the plasma of the mice at different time points after intravenous injection or oral administration of the test compounds and the reference compound, thus evaluating the pharmacokinetic characteristics of the test drugs in the mice.
C57Balb/C (C57) mice (male, 20-30 g, 7-10 weeks old, Beijing Vital River or Shanghai SLAC).
Clear or suspended solution of the test compound was injected into C57 mice (overnight fasting) via the tail vein or administered intragastrically to C57 mice (overnight fasting). For intravenous injection, […] of blood was each collected by jugular vein puncture at 0 h (before injection) and 0.0833 h, 0.25 h, 0.5 h, 1 h, 2 h, 4 h, 6 h, 8 h and 24 h (after injection), and then placed in an anticoagulation tube added with EDTA-K2 (Jiangsu KANGJIAN Medical Apparatus Co., Ltd.), and the mixture was thoroughly vortex-mixed at 4° C. and centrifuged at 13000 rpm for 10 min; for intragastric administration, blood was collected by jugular vein puncture at 0 h (before administration) and 0.5 h, 1 h, 2 h, 4 h, 6 h, 8 h and 24 h (after administration), and then placed in an anticoagulation tube added with EDTA-K2 (Jiangsu KANGJIAN Medical Apparatus Co., Ltd.), and the mixture was thoroughly vortex-mixed and centrifuged at 13000 rpm for 10 min. The plasma concentration was measured by LC-MS/MS method, and the relevant pharmacokinetic parameters were calculated by WinNonlin™ Version 6.3 (Pharsight, Mountain View, Calif.) pharmacokinetic software using non-compartmental model linear logarithmic trapezoid method.

The nature of data set [2]: Pharmacokinetic evaluation of compounds in rats. It is filed as in vivo, SD male rats. The following applies: for clearance / half-life / bioavailability: male, Sprague Dawley, rat, plasma; for bioavailability: oral, intragastric administration 10 mg/kg vs intravenous 2 mg/kg, read-out: Bioavailability F. The text has this: The test animals in the study were SD male rats, and the LC/MS/MS method was used to quantitatively determine the drug concentration in the plasma of the rats at different time points after intravenous injection or oral administration of the test compounds and the reference compound, thus evaluating the pharmacokinetic characteristics of the test drugs in the rats.
Sprague Dawley (SD) rats (male, 200-300 g, 7-10 weeks old, Beijing Vital River or Shanghai SLAC).
Clear solution of the test compound was injected into SD rats (overnight fasting) via the tail vein or administered intragastrically to SD rats (overnight fasting). For intravenous injection, 200 μL of blood was each collected by jugular vein puncture at 0 h (before injection) and 0.0833 h, 0.25 h, 0.5 h, 1 h, 2 h, 4 h, 6 h, 8 h and 24 h (after injection), and then placed in an anticoagulation tube added with EDTA-K2 (Jiangsu KANGJIAN Medical Apparatus Co., Ltd.), and the mixture was thoroughly vortex-mixed at 4° C. and centrifuged at 13000 rpm for 10 min; for intragastric administration, blood was collected by jugular veinpuncture at 0 h (before administration) and 0.5 h, 1 h, 2 h, 4 h, 6 h, 8 h and 24 h (after administration), and then placed in an anticoagulation tube added with EDTA-K2 (Jiangsu KANGJIAN Medical Apparatus Co., Ltd.), and the mixture was thoroughly vortex-mixed and centrifuged at 13000 rpm for 10 min. The plasma concentration was measured by LC-MS/MS method, and the relevant pharmacokinetic parameters were calculated by WinNonlin™ Version 6.3 (Pharsight, Mountain View, Calif.) pharmacokinetic software using non-compartmental model linear logarithmic trapezoid method.

Data set [3] relates to human myeloma MM.1S cells. Description: In vivo pharmacodynamic study in subcutaneous xenograft tumor CB-17 SCID model of human myeloma MM.1S cells. Also noted: species or system CB-17 SCID mice. The conditions noted are these: for Tumor volume (Day 0): Day 0 (baseline at grouping), 5 mg/kg oral twice daily; for Tumor volume (Day 24) / TGI (Day 24): Day 24, 5 mg/kg oral twice daily; for TGI (Day 24): tumor growth inhibition vs vehicle control. How it is done: Cell culturing: human multiple myeloma cells MM.1S (ATCC® CRL-2974™) were cultured in vitro, in a semi-suspension manner, with an ATCC-formulated RPMI-1640 medium containing 10% fetal calf serum, 100 U/mL penicillin and 100 μg/mL streptomycin in an incubator at 37° C./5% CO2. Passages were performed twice a week.
At a required number, the cells were taken, counted and inoculated.
Animals: CB-17 SCID mice, female, 6-8 weeks old, weight of 18-20 g.
0.2 mL (5×10^6 cells) of MM.1S cells (along with matrigel in a volume ratio of 1:1) was subcutaneously inoculated on the right back of each mouse, and the mice were divided into groups for administration after the mean tumor volume was approximately 130 mm^3. Seven days constitute an administration cycle, twice daily with a 12 h interval, and the test compound was orally administered for a total of four cycles. Test compounds WX009 and WX023 were administered at a dose of 5 mg/kg, tumor volume was measured twice weekly with a two-dimensional caliper, and the volume was measured in cubic millimeters and calculated according to the following formula: V=0.5 a×b2 where a and b are the long and short diameters, respectively, of the tumor. Anti-tumor efficacy was determined by dividing the mean tumor increase volume of compound-treated animals by the mean tumor increase volume of untreated animals.
(Xenograft models place foreign cells or tissue in a host animal.)

Setting [4] is: intragastric administration 10 mg/kg.

The IC50 is the concentration that inhibits the measured activity by half. As usually defined, the half-life is the time in which the quantity being followed falls by half. In general, clearance refers to a measure of how efficiently the substance is removed, as volume per time. One may read the bioavailability as dose-corrected exposure relative to a reference, in per cent.

Consider `O=C1CCC(c2noc3ccc4cc(OCCNC5CCOCC5)ccc4c23)C(=O)N1` (stereo not drawn) [Hydrochloride of WX039], for which the IC50 in the data set with MM.1S worked out at 2.6 nM.

Consider `O=C1CCC(c2noc3ccc4ccccc4c23)C(=O)N1` (stereo not drawn) [WX004], for which the figures for the IC50 in the data set on MM.1S and with NCI-H929 were 6.6 nM and 21.2 nM, respectively.

Take `O=C1CCC(c2noc3cc4occc4cc23)C(=O)N1` (stereo not drawn) [WX005]: in the data set on NCI-H929, the IC50 came out at 19.1 nM.

For `O=C1CCC(c2noc3ccc4ccoc4c23)C(=O)N1` (stereo not drawn) [WX006], the IC50 in the data set with MM.1S was found to be 2 nM.

Consider `O=C1CCC(c2noc3ccc4[nH]ccc4c23)C(=O)N1` (stereo not drawn) [WX009], for which, in data set [1] (iv, 2 mg/kg), the “Area under plasma concentration-time curve (0-inf)” value (shortened to “Area”) was 5.34 µM·h. In data set [1] (po, 10 mg/kg), the “Area” value was determined as 12.29 µM·h, the Peak concentration was found to be 10.52 µM and the Time to peak is reported as 0.25 h. In data set [1] (mice, intravenous injection 2 mg/kg, read-out: Half life (converted)), the half-life was 0.89 h. Also, the clearance in data set [1] (mice, intravenous injection 2 mg/kg, read-out: Plasma clearance) turned out to be 23.2 mL/min/kg. Also, in data set [1] (mice, oral administration 10 mg/kg vs intravenous 2 mg/kg, read-out: Bioavailability F), the bioavailability stood at 46.1%. Also, in data set [2] (setting [4]), the “Area” value is 26.34 µM·h, the Peak concentration is 12.75 µM and the Time to peak was found to be 0.50 h. In data set [2] (intravenous injection 2 mg/kg), the “Area” value is 7.92 µM·h, the clearance is 15.9 mL/min/kg and the half-life was 0.9 h. Moreover, the bioavailability in data set [2] came to 66.5%. Further, in data set [3], the “Tumor volume (Day 0)” value was found to be 131 ± 12 mm^3, the “Tumor volume (Day 24)” value is on record as 14 ± 5 mm^3 and the “TGI (Day 24)” value is 105%.

On to `COc1ccc2c(ccc3onc(C4CCC(=O)NC4=O)c32)c1` (stereo not drawn) [WX013], for which the IC50 in the data set on MM.1S came out at 4.5 nM.

`CN(C)CCOc1ccc2c(ccc3onc(C4CCC(=O)NC4=O)c32)c1` (stereo not drawn) [WX015]: the IC50 with MM.1S turned out to be 3.8 nM.

Consider `O=C1CCC(c2noc3ccc4cc(OCCN5CCOCC5)ccc4c23)C(=O)N1` (stereo not drawn) [WX023], for which the bioavailability in data set [1] was determined as 100%. In data set [1] (iv, 2 mg/kg), the “Area” value worked out at 6.87 µM·h, the clearance is 11.8 mL/min/kg and the half-life is 3.37 h. Also, in data set [1] (po, 10 mg/kg), the “Area” value was 34.40 µM·h, the Peak concentration turned out to be 17.50 µM and the Time to peak is given as 0.25 h. The half-inhibitory concentration (IC50) in the data set on MM.1S is 6.4 nM. Besides, in data set [2] (setting [4]), the “Area” value stood at 19.69 µM·h, the Peak concentration worked out at 3.08 µM and the Time to peak was 0.75 h. In addition, in data set [2] (intravenous injection 2 mg/kg), the “Area” value was found to be 3.76 µM·h, the clearance was 21.7 mL/min/kg and the half-life was 1.24 h. In addition, in data set [2], the bioavailability was 73.7%. Moreover, in the data set with NCI-H929, the IC50 is 10.3 nM. For the same compound, in data set [3], the “Tumor volume (Day 0)” value worked out at 130 ± 8 mm^3, the “Tumor volume (Day 24)” value was 15 ± 4 mm^3 and the “TGI (Day 24)” value was 105%.

On to `O=C1CCC(c2noc3ccc4cc(OCCN5CCCC5)ccc4c23)C(=O)N1` (stereo not drawn) [WX027], for which the IC50 in the data set with MM.1S was determined as 3.4 nM.

For the compound `O=C1CCC(c2noc3ccc4cc(CO)ccc4c23)C(=O)N1` (stereo not drawn) [WX061], the concentration for half-maximal inhibition (IC50) with MM.1S is 3.4 nM.
